Assay results from PubChem BioAssay AID1963849 (Molecular Pharmacology Branch, DTP, NCI, 2024).

System: 299254-011-R-J1-PDC complex spheroid viability
Assay: Anticancer human tumor 299254-011-R-J1-PDC patient-derived melanoma cell line growth inhibition [POLQ]
Details: for IC50: curve of first compound; for viability, T/C: stronger effect = lower value
Summary of the method: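 PDC + HUVEC + MSC complex spheroids; POLQ inhibitors ± partner drugs; top conc. at/near clinical Cmax, else 10 microM (SN-38 1 microM), half-log dilutions; 37 degrees C, 5% CO2.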

[1] = second compound 0.0316 µM, first compound 0.0316 µM
[2] = second compound 0.0316 µM, first compound 0.1 µM
[3] = second compound 0.0316 µM, first compound 0.316 µM
[4] = second compound 0.0316 µM, first compound 1 µM
[5] = second compound 0.0316 µM, first compound 3.16 µM
[6] = second compound 0.0316 µM, first compound 10 µM
[7] = second compound 0.1 µM, first compound 0.0316 µM
[8] = second compound 0.1 µM, first compound 0.1 µM
[9] = second compound 0.1 µM, first compound 0.316 µM
[10] = second compound 0.1 µM, first compound 1 µM
[11] = second compound 0.1 µM, first compound 3.16 µM
[12] = second compound 0.1 µM, first compound 10 µM
[13] = second compound 0.316 µM, first compound 0.0316 µM
[14] = second compound 0.316 µM, first compound 0.1 µM
[15] = second compound 0.316 µM, first compound 0.316 µM
[16] = second compound 0.316 µM, first compound 1 µM
[17] = second compound 0.316 µM, first compound 3.16 µM
[18] = second compound 0.316 µM, first compound 10 µM
[19] = second compound 1 µM, first compound 0.0316 µM
[20] = second compound 1 µM, first compound 0.1 µM
[21] = second compound 1 µM, first compound 0.316 µM
[22] = second compound 1 µM, first compound 1 µM
[23] = second compound 1 µM, first compound 3.16 µM
[24] = second compound 1 µM, first compound 10 µM
[25] = second compound 3.16 µM, first compound 0.0316 µM
[26] = second compound 3.16 µM, first compound 0.1 µM
[27] = second compound 3.16 µM, first compound 0.316 µM
[28] = second compound 3.16 µM, first compound 1 µM
[29] = second compound 3.16 µM, first compound 3.16 µM
[30] = second compound 3.16 µM, first compound 10 µM
[31] = second compound 10 µM, first compound 0.0316 µM
[32] = second compound 10 µM, first compound 0.1 µM
[33] = second compound 10 µM, first compound 0.316 µM
[34] = second compound 10 µM, first compound 1 µM
[35] = second compound 10 µM, first compound 3.16 µM
[36] = second compound 10 µM, first compound 10 µM
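Also: spheroids exposed to drugs for one week before measurement.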
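For viability, T/C in this document: percent viability relative to DMSO vehicle control taken as 100%.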

CC1COCCN1c1cc(C2(O)CC3CCC(C2)O3)c2cnn(-c3ccn[nH]3)c2n1 (stereo not drawn) + Cc1cccc(N(C)C(=O)C2C(O)CCN2c2nc(C)cc(C(F)(F)F)c2C#N)c1
IC50 (second compound 0.0316 µM): 0.182 µM
IC50 (second compound 0.1 µM): 0.224 µM
IC50 (second compound 0.316 µM): 0.234 µM
IC50 (second compound 1 µM): 0.153 µM
IC50 (second compound 3.16 µM): 0.169 µM
IC50 (second compound 10 µM): 0.0815 µM
viability, T/C [1]: 76.1%
viability, T/C [2]: 65.7%
viability, T/C [3]: 35.2%
viability, T/C [4]: 21.1%
viability, T/C [5]: 17.5%
viability, T/C [6]: 10.6%
viability, T/C [7]: 93.9%
viability, T/C [8]: 69.5%
viability, T/C [9]: 39.1%
viability, T/C [10]: 27.4%
viability, T/C [11]: 17.4%
viability, T/C [12]: 9.48%
viability, T/C [13]: 81.4%
viability, T/C [14]: 64.7%
viability, T/C [15]: 46.5%
viability, T/C [16]: 22.8%
viability, T/C [17]: 18.6%
viability, T/C [18]: 7.95%
viability, T/C [19]: 99.5%
viability, T/C [20]: 56.8%
viability, T/C [21]: 36%
viability, T/C [22]: 24.1%
viability, T/C [23]: 15.5%
viability, T/C [24]: 10.2%
viability, T/C [25]: 97.1%
viability, T/C [26]: 61.8%
viability, T/C [27]: 35.5%
viability, T/C [28]: 22.1%
viability, T/C [29]: 14.2%
viability, T/C [30]: 10.6%
viability, T/C [31]: 73.5%
viability, T/C [32]: 44.5%
viability, T/C [33]: 27.2%
viability, T/C [34]: 20.2%
viability, T/C [35]: 14.2%
viability, T/C [36]: 9.04%

O=C(c1cc(Cc2n[nH]c(=O)c3ccccc23)ccc1F)N1CCN(C(=O)C2CC2)CC1 + Cc1cccc(N(C)C(=O)C2C(O)CCN2c2nc(C)cc(C(F)(F)F)c2C#N)c1
IC50 (second compound 0.0316 µM): > 10 µM
IC50 (second compound 0.1 µM): > 10 µM
IC50 (second compound 0.316 µM): > 10 µM
IC50 (second compound 1 µM): > 10 µM
IC50 (second compound 3.16 µM): > 10 µM
IC50 (second compound 10 µM): > 10 µM
viability, T/C [1]: 90.3%
viability, T/C [2]: 85.9%
viability, T/C [3]: 98.3%
viability, T/C [4]: 104%
viability, T/C [5]: 99.6%
viability, T/C [6]: 101%
viability, T/C [7]: 93.5%
viability, T/C [8]: 108%
viability, T/C [9]: 95%
viability, T/C [10]: 97.5%
viability, T/C [11]: 110%
viability, T/C [12]: 77.4%
viability, T/C [13]: 93%
viability, T/C [14]: 94%
viability, T/C [15]: 95.9%
viability, T/C [16]: 104%
viability, T/C [17]: 106%
viability, T/C [18]: 83.8%
viability, T/C [19]: 125%
viability, T/C [20]: 101%
viability, T/C [21]: 108%
viability, T/C [22]: 117%
viability, T/C [23]: 102%
viability, T/C [24]: 80.2%
viability, T/C [25]: 96.4%
viability, T/C [26]: 111%
viability, T/C [27]: 99.6%
viability, T/C [28]: 115%
viability, T/C [29]: 92.8%
viability, T/C [30]: 74.2%
viability, T/C [31]: 102%
viability, T/C [32]: 94.5%
viability, T/C [33]: 83.2%
viability, T/C [34]: 89.2%
viability, T/C [35]: 92.9%
viability, T/C [36]: 69%

COc1cccc2c1C(=O)c1c(O)c3c(c(O)c1C2=O)CC(O)(C(=O)CO)CC3OC1CC(N)C(O)C(C)O1 (stereo not drawn) + Cc1cccc(N(C)C(=O)C2C(O)CCN2c2nc(C)cc(C(F)(F)F)c2C#N)c1
IC50 (second compound 0.0316 µM): 0.565 µM
IC50 (second compound 0.1 µM): 0.803 µM
IC50 (second compound 0.316 µM): 0.763 µM
IC50 (second compound 1 µM): 0.67 µM
IC50 (second compound 3.16 µM): 0.567 µM
IC50 (second compound 10 µM): 0.352 µM
viability, T/C [1]: 111%
viability, T/C [2]: 77.3%
viability, T/C [3]: 64.9%
viability, T/C [4]: 44.1%
viability, T/C [5]: 12.2%
viability, T/C [6]: 0.75%
viability, T/C [7]: 83.7%
viability, T/C [8]: 75.8%
viability, T/C [9]: 77.4%
viability, T/C [10]: 42.9%
viability, T/C [11]: 11.7%
viability, T/C [12]: 0.68%
viability, T/C [13]: 97.7%
viability, T/C [14]: 83.2%
viability, T/C [15]: 75.2%
viability, T/C [16]: 43.8%
viability, T/C [17]: 11.4%
viability, T/C [18]: 1.03%
viability, T/C [19]: 105%
viability, T/C [20]: 89.8%
viability, T/C [21]: 61.7%
viability, T/C [22]: 48.6%
viability, T/C [23]: 12%
viability, T/C [24]: 0.75%
viability, T/C [25]: 100%
viability, T/C [26]: 74.8%
viability, T/C [27]: 68.8%
viability, T/C [28]: 38.9%
viability, T/C [29]: 8.88%
viability, T/C [30]: 0.51%
viability, T/C [31]: 102%
viability, T/C [32]: 74.6%
viability, T/C [33]: 59.9%
viability, T/C [34]: 19.8%
viability, T/C [35]: 0.75%
viability, T/C [36]: 0.31%

CCc1c2c(nc3ccc(O)cc13)-c1cc3c(c(=O)n1C2)COC(=O)[C@]3(O)CC + Cc1cccc(N(C)C(=O)C2C(O)CCN2c2nc(C)cc(C(F)(F)F)c2C#N)c1
IC50 (second compound 0.0316 µM): > 1 µM
IC50 (second compound 0.1 µM): > 1 µM
IC50 (second compound 0.316 µM): > 1 µM
IC50 (second compound 1 µM): > 1 µM
IC50 (second compound 3.16 µM): > 1 µM
IC50 (second compound 10 µM): > 1 µM
viability, T/C (second compound 0.0316 µM, first compound 0.00316 µM): 95.9%
viability, T/C (second compound 0.0316 µM, first compound 0.01 µM): 79.2%
viability, T/C [1]: 72.9%
viability, T/C [2]: 67.8%
viability, T/C [3]: 62.5%
viability, T/C [4]: 53.7%
viability, T/C (second compound 0.1 µM, first compound 0.00316 µM): 92.8%
viability, T/C (second compound 0.1 µM, first compound 0.01 µM): 95.7%
viability, T/C [7]: 65.3%
viability, T/C [8]: 67.6%
viability, T/C [9]: 72.8%
viability, T/C [10]: 56.4%
viability, T/C (second compound 0.316 µM, first compound 0.00316 µM): 104%
viability, T/C (second compound 0.316 µM, first compound 0.01 µM): 86.3%
viability, T/C [13]: 75.3%
viability, T/C [14]: 76.2%
viability, T/C [15]: 56.7%
viability, T/C [16]: 53%
viability, T/C (second compound 1 µM, first compound 0.00316 µM): 111%
viability, T/C (second compound 1 µM, first compound 0.01 µM): 88.5%
viability, T/C [19]: 75.1%
viability, T/C [20]: 64.7%
viability, T/C [21]: 68.6%
viability, T/C [22]: 49.6%
viability, T/C (second compound 3.16 µM, first compound 0.00316 µM): 112%
viability, T/C (second compound 3.16 µM, first compound 0.01 µM): 79%
viability, T/C [25]: 72.1%
viability, T/C [26]: 64.8%
viability, T/C [27]: 71.6%
viability, T/C [28]: 60%
viability, T/C (second compound 10 µM, first compound 0.00316 µM): 88.6%
viability, T/C (second compound 10 µM, first compound 0.01 µM): 69.3%
viability, T/C [31]: 57.9%
viability, T/C [32]: 81.5%
viability, T/C [33]: 60.1%
viability, T/C [34]: 49.7%
